According to PMC10208040, “Computational docking and in vitro analysis identifies novel arylidene analogue FPMXY-14 against renal cancer cells by attenuating Akt” (Oncology Research, 2021):

Target: T1, Akt
T1 construct: gene AKT1
Test: Z'-LYTE fluorescence-based coupled-enzyme kinase assay
Format: biochemical

Cc1ccc(C)c2c1CC(=Cc1ccc(C(C)C)cc1)C2=O [FPMXY-14, 2-(4-isopropyl-benzylidene)-4,7-dimethyl-indan-1-one]
IC50: 148 nM
